Tests used:
Experiment in all cases: selective drug sensitivity score (sDSS, relative to normal bone marrow) (sDSS (score)); higher = more potent and effective on the cell line relative to normal bone marrow cells
Settings in all cases: 72 h
[1] = system: 380
[2] = system: 697
[3] = system: ALL-PO
[4] = system: ALL-SIL
[5] = system: CCRF-CEM
[6] = system: COG-LL-319h
[7] = system: COG-LL-332h
[8] = system: COG-LL-402h
[9] = system: HPB-ALL
[10] = system: JURKAT
[11] = system: LC4-1
[12] = system: MHH-CALL-2
[13] = system: MHH-CALL-4
[14] = system: MN-60
[15] = system: MOLT-14
[16] = system: NALM-6
[17] = system: P30-OHKUBO
[18] = system: RCH-ACV
[19] = system: SEM cells
[20] = system: TMD5
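Also: ALL cell lines in 384-well plates, five doses spanning 10,000-fold, each plate scaled between vehicle and 100 µmol/L benzalkonium chloride controls, sDSS an adapted area-under-curve metric.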

Compound	selective drug sensitivity score [1]	selective drug sensitivity score [2]	selective drug sensitivity score [3]	selective drug sensitivity score [4]	selective drug sensitivity score [5]	selective drug sensitivity score [6]	selective drug sensitivity score [7]	selective drug sensitivity score [8]	selective drug sensitivity score [9]	selective drug sensitivity score [10]	selective drug sensitivity score [11]	selective drug sensitivity score [12]	selective drug sensitivity score [13]	selective drug sensitivity score [14]	selective drug sensitivity score [15]	selective drug sensitivity score [16]	selective drug sensitivity score [17]	selective drug sensitivity score [18]	selective drug sensitivity score [19]	selective drug sensitivity score [20]
CC(=O)c1cc2c(o1)C(=O)c1ccccc1C2=O [Napabucasin] (top concentration 20000 nM)	-2.08	-0.88	0.92	2.22	-1.08	-0.18	2.32	-3.48	-0.98	0.52	-0.38	3.72	0.12	-2.08	-0.98	-1.48	0.42	-1.38	0.52	-1.28
Cn1cnc2c(F)c(Nc3ccc(Br)cc3Cl)c(C(=O)NOCCO)cc21 [Selumetinib] (top concentration 10000 nM)	9.6	-1	-2.8	-4.1	2	-1.8	-2.3	-2.3	-4.1	-3.5	0.7	8.5	4.2	-4.1	7.2	5	-2.1	-3.7	-0.3	3.1
Cc1ncc(Cl)cc1NCc1ccc(C(=O)N[C@@H](CC2CCCC2)C(=O)NC2CC2)s1 (top concentration 5000 nM)	9.86	-0.94	-0.94	4.16	-0.94	14.3	1.86	13.1	1.36	0.76	-0.94	-0.24	-0.94	-0.94	2.96	-0.94	-0.94	1.46	-0.94	-0.94
Cc1nc(Nc2n[nH]c3c2CN(C(=O)N[C@H](CN(C)C)c2ccccc2)C3(C)C)c2sccc2n1 (top concentration 10000 nM)	22.2	16.4	5.58	-5.82	6.98	4.28	7.58	6.18	-1.72	0.68	3.98	0.38	0.88	5.08	7.18	1.18	12	22.7	2.28	-7.92
COC12C(COC(N)=O)C3=C(C(=O)C(C)=C(N)C3=O)N1CC1NC12 (stereo in doubt) [Mitomycin_C] (top concentration 10000 nM)	-1.36	2.34	-0.76	-2.86	-2.86	9.74	-2.86	-2.86	-1.16	-2.86	2.34	1.54	-1.66	-2.86	-2.86	-2.86	2.24	4.84	3.84	-1.96
CC(C)(C)c1nc(-c2cccc(NS(=O)(=O)c3c(F)cccc3F)c2F)c(-c2ccnc(N)n2)s1 [Dabrafenib] (top concentration 2500 nM)	-1.52	11.5	-0.22	3.48	0.58	-0.92	1.68	0.48	2.98	1.08	6.48	9.18	3.08	-0.92	1.48	-0.52	5.18	0.88	-1.52	1.18
CC(C)[C@@H](CS(=O)(=O)C(C)C)N1C(=O)[C@@](C)(CC(=O)O)C[C@H](c2cccc(Cl)c2)[C@H]1c1ccc(Cl)cc1 [AMG-232] (top concentration 10000 nM)	13	9.06	-6.94	-8.14	-7.34	11.4	9.26	9.26	-9.34	-8.34	11.3	11.7	10.9	3.16	10.1	7.96	8.96	12.1	-8.34	6.76
CC(=O)c1c(C)c2cnc(Nc3ccc(N4CCNCC4)cn3)nc2n(C2CCCC2)c1=O [Palbociclib] (top concentration 10000 nM)	-0.12	14.3	4.08	-2.12	4.38	0.38	3.68	8.78	2.78	1.58	4.38	3.68	-1.82	-0.62	2.48	3.68	9.58	16.1	4.98	-5.22
Nc1ncnc2c1nc(N)n2[C@@H]1O[C@H](CO)[C@@H](O)[C@H]1O [8-amino-adenosine] (top concentration 50000 nM)	9.38	6.48	5.48	2.68	6.48	6.78	3.18	5.78	-3.82	-5.42	7.78	3.28	2.18	1.58	5.18	6.68	6.18	6.68	5.08	2.68
Cc1nc(NC(=O)N2CCC[C@H]2C(N)=O)sc1-c1ccnc(C(C)(C)C(F)(F)F)c1 [Alpelisib] (top concentration 2500 nM)	3.18	1.08	3.28	6.28	0.48	12.5	0.18	4.18	2.88	-0.82	0.98	1.68	-0.22	1.18	-0.82	3.88	2.78	8.98	-0.82	-0.82
CO[C@H](C(=O)[C@@H](O)[C@@H](C)O)[C@@H]1Cc2cc3cc(O[C@H]4C[C@@H](O[C@H]5C[C@@H](O)[C@H](O)[C@@H](C)O5)[C@@H](O)[C@@H](C)O4)c(C)c(O)c3c(O)c2C(=O)[C@H]1O[C@H]1C[C@@H](O[C@H]2C[C@@H](O[C@H]3C[C@](C)(O)[C@H](O)[C@@H](C)O3)[C@H](O)[C@@H](C)O2)[C@H](O)[C@@H](C)O1 [Plicamycin] (top concentration 10000 nM)	7.14	-17.5	-15.9	-1.46	-11.3	7.54	-6.26	2.34	7.44	-11.2	-16.7	-6.26	-7.26	5.34	-10.3	7.34	-16.3	-17.3	-16.6	-13.8
O=C(Nc1c[nH]nc1-c1nc2ccc(CN3CCOCC3)cc2[nH]1)NC1CC1 [AT9283] (top concentration 1000 nM)	11.3	12.1	6.32	15.6	12.5	11.3	11.7	7.72	-1.48	-1.38	12.4	3.42	4.92	1.02	13.8	6.82	16	6.02	14.7	7.32
C[C@@H]1COCCN1c1cc(C2([S@](C)(=N)=O)CC2)nc(-c2cc[nH]c3nccc2-3)n1 [AZD6738] (top concentration 25000 nM)	19.5	11	4.58	8.88	10.8	15.6	8.08	7.68	7.38	3.88	8.48	13.2	5.48	-1.02	11.5	7.28	5.78	15.9	17.2	5.88
Cn1cc(CNCC2CCN(c3ncc(C(=O)NO)cn3)CC2)c2ccccc21 [Quisinostat] (top concentration 1000 nM)	6.68	8.68	5.98	5.68	3.98	12.3	1.48	17.6	6.88	1.78	7.38	8.28	5.98	-2.02	6.98	1.78	7.18	14.2	6.38	5.08
COCCNCc1ccc(-c2cc3nccc(Oc4ccc(NC(=O)C5(C(=O)Nc6ccc(F)cc6)CC5)cc4F)c3s2)nc1 [Sitravatinib] (top concentration 2500 nM)	2.18	1.58	14.8	15.9	0.18	-0.32	5.98	1.78	-0.42	0.38	1.28	6.78	5.48	0.78	1.08	-0.12	5.78	7.38	26.2	11
COCC[n+]1c2c(n(Cc3cnccn3)c1C)C(=O)c1ccccc1C2=O [Sepantronium_bromide] (top concentration 10000 nM)	22	22.8	4.44	-3.26	8.44	4.64	14.2	22.8	6.34	14.2	22.3	22.8	19.4	21.2	12.5	22.3	22.8	17.9	13.3	20.5
C[C@@H]1COC(Nc2ccc3ncnc(Nc4ccc(OCc5nccs5)c(Cl)c4)c3c2)=N1 [Varlitinib] (top concentration 10000 nM)	18.5	3.82	5.12	2.92	-0.18	18.8	2.12	-0.18	1.92	-0.18	20.2	5.02	0.82	0.02	-0.18	-0.18	4.32	5.92	2.92	3.02
CN(c1ncccc1CNc1nc(Nc2ccc3c(c2)CC(=O)N3)ncc1C(F)(F)F)S(C)(=O)=O (top concentration 10000 nM)	4.02	2.62	6.62	4.92	-0.28	4.52	2.02	2.42	-1.18	1.52	3.82	-1.28	-0.78	-1.08	-0.08	5.22	2.72	3.62	7.22	-3.28

Reference: the supplement of paper PMC8967900
